Where “and” joins values, the source holds several entries; their conditions need not be identical. Identical values can stand only once.
Experiments:
LEFCH = assay: Example I postemergence foliar-applied, greenhouse, direct seeded rice weeds; assay type: in vivo, Leptochloa chinensis (L.) Nees
Text: Seeds or nutlets of the desired test plant species were planted in a soil matrix prepared by mixing a loam or sandy loam soil (e.g., 28.6 percent silt, 18.8 percent clay, and 52.6 percent sand, with a pH of about 5.8 and an organic matter content of about 1.8 percent) and calcareous grit in an 80 to 20 ratio. The soil matrix was contained in plastic pots with a volume of 1 quart and a surface area of 83.6 square centimeters (cm^2). When required to ensure good germination and healthy plants, a fungicide treatment and/or other chemical or physical treatment was applied. The plants were grown for 8-22 days in a greenhouse with an approximate 14 hr. photoperiod which was maintained at about 29° C. during the day and 26° C. during the night. Nutrients (Peters Excel® 15-5-15 5-Ca 2-Mg and iron chelate) were applied in the irrigation solution as needed and water was added on a regular basis. Supplemental lighting was provided with overhead metal halide 1000-Watt lamps as necessary. The plants were employed for testing when they reached the first through fourth true leaf stage.
Treatments consisted of the acid or esters of 4-amino-3-chloro-5-fluoro-6-(4-chloro-2-fluoro-3-methoxy-phenyl)pyridine-2-carboxylic acid (Compound A), each formulated as an SC (suspension concentrate), and various herbicidal components alone and in combination.
Other herbicidal components were applied on an acid equivalent (ae) or active ingredient (ai) basis and included acetyl coA carboxylase (ACCase)-inhibiting herbicides (cyclohexanedione and aryloxyphenoxypropionate chemical classes) cyhalofop-butyl formulated as Clincher® SF (285 gr ai/L EC), diclofop-methyl formulated as Hoelon® 3EC, fenoxaprop-p-ethyl+isoxadifen-ethyl formulated as RiceStar® HT (0.58 lb./gal EC), fenoxaprop-p-ethyl+mefenpyr diethyl formulated as Puma® IEC, metamifop formulated as Metamifop EC, haloxyfop-methyl formulated as Gallant Super®, fluazifop-p-butyl formulated as Fusilade® DX, quizalofop-p-ethyl formulated as Assure® II, profoxydim formulated as Aura® 20EC, clethodim applied as Intensity®, sethoxydim formulated as Poast®, and tralkoxydim formulated as Achieve®.
Treatment requirements were calculated based upon the rates being tested, the concentration of active ingredient or acid equivalent in the formulation, and a 12 mL application volume at a rate of 187 L/ha.
For treatments comprised of formulated compounds, measured amounts of compounds were placed individually in 25 mL glass vials and diluted in a volume of 1.25% (v/v) Agri-Dex® crop oil concentrated to obtain 12× stock solutions. […] Application solutions were prepared by adding an appropriate amount of each stock solution (e.g., 1 mL) and diluted to the appropriate final concentrations with the addition of 10 mL of an aqueous mixture of 1.25% (v/v) crop oil concentrate so that the final spray solutions contained 1.25+/−0.05% (v/v) crop oil concentrate.
All stock solutions and applications solutions were visually inspected for compound compatibility prior to application. Spray solutions were applied to the plant material with an overhead Mandel track sprayer equipped with a 8002E nozzles calibrated to deliver 187 L/ha over an application area of 0.503 m^2 at a spray height of 18 to 20 inches (46 to 50 cm) above average plant canopy height. Control plants were sprayed in the same manner with the solvent blank.
The treated plants and control plants were placed in a greenhouse as described above and watered by sub-irrigation to prevent wash-off of the test compounds. After approximately 3 weeks, the condition of the test plants as compared with that of the untreated plants was determined visually and scored on a scale of 0 to 100 percent where 0 corresponds to no injury or growth inhibition and 100 corresponds to complete kill. […]

SEBEX = assay: Example V post-emergence field trials in direct-seeded rice; assay type: in vivo, Sesbania exaltata; details: foliar, field trial Humphrey, Arkansas, USA
Protocol: Multiple field trials were conducted under commercial grower field conditions in Tolima, Colombia; Thessaloniki, Greece; Bianze and Copiano, Italy; and Humphrey, Ark., USA. Trials sites were located in commercially grown fields of direct-seeded rice (Oryza sativa) using standard herbicide small plot research methodology. Plots varied from 2 to 3 meter (m)×5 to 8 m (width×length) with 4 replicates per treatment. The rice crop was grown using normal cultural practices for fertilization, seeding, watering, flooding and maintenance to ensure good growth of the crop and the weeds.
All treatments in the field trials were applied using a backpack compressed air/gas sprayer with flat fan nozzles (80° or 110°) calibrated to apply 187 to 300 L/ha spray volume at approximately 200-400 kPa nozzle pressure. Commercially available products of cyhalofop-butyl (Clincher 180EC, Clincher 200EC, and Clincher SF (285 gr ai/L EC)) were mixed in water at appropriate formulated product rates to achieve the desired rates based on a unit area of application (hectare) to achieve the desired rates as shown. […] Visual weed control was scored on a scale of 0 to 100 percent where 0 corresponds to no injury and 100 corresponds to complete kill.
All treatment results, both for the single product and mixtures, are an average of 4 replicates. The trial sites had naturally occurring populations of weeds. The weed spectrum included, but was not limited to, rice flatsedge (Cyperus iria, CYPIR); smallflower umbrellaplant (Cyperus difformis, CYPDI), junglerice (Echinochloa colona, ECHCO), barnyardgrass (Echinochloa crus-galli, ECHCG); multiple Echinochloa species in the same field (ECHSS), grasslike fimbristylis (Fimbristylis miliacea, FIMMI); ricefield bulrush (Schoenoplectus mucronatus, SCPMU) and hemp Sesbania (Sesbania exaltata, SEBEX). All synergistic interactions were significant at the […] level.

ECHCO = assay: Example V (second) postemergence foliar-applied ternary mixtures, greenhouse, direct seeded rice weeds; assay type: in vivo, Echinochloa colona (L.) Link
Protocol: The treated plants and control plants were placed in a greenhouse as described above and watered by sub-irrigation to prevent wash-off of the test compounds. After approximately 3 weeks, the condition of the test plants as compared with that of the untreated plants was determined visually and scored on a scale of 0 to 100 percent where 0 corresponds to no injury or growth inhibition and 100 corresponds to complete kill.
Colby's equation was used to determine the herbicidal effects expected from the mixtures (Colby, S. R. 1967. Calculation of the synergistic and antagonistic response of herbicide combinations. Weeds 15:20-22.).
The following equation was used to calculate the expected activity of mixtures containing three active ingredients, A, B, and C: Expected=A+B+C−((A×B+A×C+B×C)/100)+(A×B×C/10000)

SCPMA = assay: Example VI in-water applied ternary mixtures, greenhouse, transplanted paddy rice weeds; assay type: in vivo

## COc1c(Cl)ccc(-c2nc(C(=O)OCc3ccccc3)c(Cl)c(N)c2F)c1F [Compound A Benzyl Ester, benzyl ester of 4-amino-3-chloro-5-fluoro-6-(4-chloro-2-fluoro-3-methoxy-phenyl)pyridine-2-carboxylic acid]
LEFCH; 4.38 gae/ha
  Visual Weed Control (%) - 20 DAA LEFCH Obs: 0%
LEFCH; 8 gae/ha
  Visual Weed Control (%) - 22 DAA LEFCH Obs: 15%
LEFCH; 8.75 gae/ha
  Visual Weed Control (%) - 20 DAA LEFCH Obs: 10%
LEFCH; 16 gae/ha
  Visual Weed Control (%) - 22 DAA LEFCH Obs: 50%
LEFCH; 17.5 gae/ha
  Visual Weed Control (%) - 20 DAA LEFCH Obs: 25%
SEBEX; 24 gae/ha
  Visual Weed Control (%) - 7 DAA SEBEX Obs: 80%
SEBEX; 32 gae/ha
  Visual Weed Control (%) - 7 DAA SEBEX Obs: 78%
ECHCO; 2.19 gae/ha
  Visual Weed Control (%) - 21 DAA ECHCO Obs: 10%
ECHCO; 4.38 gae/ha
  Visual Weed Control (%) - 21 DAA ECHCO Obs: 25%
ECHCO; 8 gae/ha
  Visual Weed Control (%) - 21 DAA ECHCO Obs: 45%
SCPMA; Table 68, 4 gae/ha
  Visual Weed Control (%) - 21 DAA SCPMA Obs: 0%
SCPMA; Table 68, 8 gae/ha
  Visual Weed Control (%) - 21 DAA SCPMA Obs: 0%
SCPMA; Table 68, 16 gae/ha
  Visual Weed Control (%) - 21 DAA SCPMA Obs: 0%

## CCC/C(=N\OCC(C)Oc1ccc(Cl)cc1)C1=C(O)CC(C2CCCSC2)CC1=O (stereo not shown) [Profoxydim, 2-[1-[[2-(4-chlorophenoxy)propoxy]imino]butyl]-3-hydroxy-5-(tetrahydro-2H-thiopyran-3-yl)-2-cyclohexen-1-one, reference compound]
LEFCH; 12.5 gai/ha
  Visual Weed Control (%) - 20 DAA LEFCH Obs: 0%
LEFCH; 25 gai/ha
  Visual Weed Control (%) - 20 DAA LEFCH Obs: 40%

## CCCCOC(=O)[C@@H](C)Oc1ccc(Oc2ccc(C#N)cc2F)cc1 [Cyhalofop-butyl, butyl(2R)-2-[4-(4-cyano-2-fluorophenoxy)phenoxy]propanoate, reference compound]
SEBEX; 280 gai/ha
  Visual Weed Control (%) - 7 DAA SEBEX Obs: 0%
ECHCO; 35 gai/ha
  Visual Weed Control (%) - 21 DAA ECHCO Obs: 37% and 40%
SCPMA; Table 68, cyhalofop-butyl 22.5 gai/ha
  Visual Weed Control (%) - 21 DAA SCPMA Obs: 0%
SCPMA; Table 68, cyhalofop-butyl 45 gai/ha
  Visual Weed Control (%) - 21 DAA SCPMA Obs: 0%

Source: patent US9232796B2, “Herbicidal compositions comprising 4-amino-3-chloro-5-fluoro-6-(4-chloro-2-fluoro-3-methoxyphenyl) pyridine-2-carboxylic acid or a derivative thereof and acetyl-CoA carboxylase (ACCase) inhibitors” (DOW AGROSCIENCES LLC, priority 2012, dated 2016)
